Reference: patent US20240315992A1, “AMINOXY ACID-BASED ANTIBACTERIAL COMPOUNDS AND METHODS THEREOF” (The University of Hong Kong, priority 2023, published 2024)

Tested on: virulence proteins of Staphylococcus aureus ATCC 29213
Assay: Secretome analysis of virulence proteins
Type: cell-based
Settings: 1.56 μM (0.5×MIC), 1.5 hours, supernatant
Procedure: The red dots represented proteins which were annotated as “Virulence” and “Secrete/extracellular” as subcellular location by UniprotKB. The curve is derived at FDR=0.05 and s0=0.1.
S. aureus ATCC 29213 cells were sub-cultured from an overnight culture to OD595 0.1 and then cultured for 5 hours at 37° C., 250 rpm. Cells were concentrated by centrifugation (3,000×g, 4° C., 15 minutes), washed with 1×PBS and resuspended in CAMH to give OD595 1.5. […] Cells were then concentrated by centrifugation (3,000×g, 15 minutes and 6,000×g, 5 minutes). The supernatant was filtered (0.2 μm) and then concentrated by Amicon Ultra 10 KDa filter. Protein concentration was quantified by Bradford assay.
To quench the reaction, dithiothreitol (12.5 mM; 25° C., 200 rpm) was added for 30 minutes. Endoprotinase LysC was subsequently added (Enzyme: protein ratio 1:200; 25° C., 700 rpm) for 2 hours. The samples were diluted 1:5 by 50 mM ammonium bicarbonate buffer and further digested by trypsin (Enzyme: protein ratio 1:20; 37° C.) for 16 hours. The reaction was quenched by the addition of formic acid until pH reached 2-3. Samples were then submitted to the HKU proteomics and metabolomics core facility for analysis.
The peptides were desalted using C18 StageTips. Eluted peptides were analyzed with nanoelute UPLC was coupled to Bruker TimsTOF Pro mass spectrometer. […]

## CC(C)C[C@H](ONC(=O)[C@@H](COCc1ccccc1)ONC(=O)c1cc(C(F)(F)F)cc(C(F)(F)F)c1)C(=O)Nc1ccccc1 [Compound 8]
  secretion of the virulence proteins: can reduce the secretion of the virulence proteins
